According to US11634393B2, “Substituted tolyl fungicides” (FMC CORPORATION, priority 2018, dated 2023):

Tests used:
[1] = system: Puccinia recondita f. sp. tritici; test: Test B: wheat leaf rust, spray on wheat seedlings, disease control rating; assay type: in vivo; settings: Rate 10 ppm, 100 = 100% disease control, 0 = no disease control relative to the controls; for pest or weed control at 10 ppm: Puccinia recondita, 192 h
From the text: (§1) General protocol for preparing test suspensions for Tests A-F: the test compounds were first dissolved in acetone in an amount equal to 3% of the final volume and then suspended at the desired concentration (in ppm) in acetone and purified water (50/50 mix by volume) containing 250 ppm of the surfactant PEG400 (polyhydric alcohol esters). The resulting test suspensions were then used in Tests A-F.
The test solution was sprayed to the point of run-off on wheat seedlings. The following day the seedlings were inoculated with a spore suspension of Puccinia recondita f. sp. tritici (the causal agent of wheat leaf rust) and incubated in a saturated atmosphere at 20° C. for 24 h, and then moved to a growth chamber at 20° C. for 7 days, after which time disease ratings were made.
(§2) A rating of 100 indicates 100% disease control and a rating of 0 indicates no disease control (relative to the controls). A dash (-) indicates the compound was not tested.

[2] = system: Phakopsora pachyrhizi; test: Test D: Asian soybean rust, spray on soybean seedlings, disease control rating; assay type: in vivo; settings: Rate 10 ppm, 100 = 100% disease control, 0 = no disease control relative to the controls; for pest or weed control at 10 ppm: Phakopsora pachyrhizi, 216 h
From the text: as §1
The test solution was sprayed to the point of run-off on soybean seedlings. The following day the seedlings were inoculated with a spore suspension of Phakopsora pachyrhizi (the causal agent of Asian soybean rust) and incubated in a saturated atmosphere at 22° C. for 24 h and then moved to a growth chamber at 22° C. for 8 days, after which time visual disease ratings were made.
as §2

| Structure (SMILES) | pest or weed control at 10 ppm [1] [%] | pest or weed control at 10 ppm [2] [%] | Test B disease control rating [1] [%] | Test D disease control rating [2] [%] |
| --- | --- | --- | --- | --- |
| COC(=O)NCc1cc(-c2ccn(-c3c(Cl)cccc3I)n2)ccc1C [Compound 59] | 45 | 87 | – | – |
| COC(=O)NCc1cc(-c2ccn(-c3c(Cl)cccc3Br)n2)ccc1C [Compound 60] | 68 | 100 | – | – |
| COC(=O)NCc1cc(-c2ccn(-c3c(C)cccc3Br)n2)ccc1C [Compound 61] | 68 | 97 | – | – |
| C=C(C)c1cc(F)c(-n2ccc(-c3ccc(C)c(CNC(=O)OC)c3)n2)c(F)c1 [Compound 62] | – | – | 99 | 100 |
| COC(=O)NCc1cc(-c2ccn(-c3c(Cl)cc(C4CC4)cc3Cl)n2)ccc1C [Compound 65, methyl N-[[5-[1-(2,6-dichloro-4-cyclopropylphenyl)-1H-pyrazol-3-yl]-2-methylphenyl]methyl]carbamate] | 97 | 100 | – | – |
| COC(=O)NCc1cc(-c2ccn(-c3c(F)cc(C=O)cc3F)n2)ccc1C [Compound 67, methyl N-[[5-[1-(2,6-difluoro-4-formylphenyl)-1H-pyrazol-3-yl]-2-methylphenyl]methyl]carbamate] | 0 | 12 | – | – |
| COC(=O)NCc1cc(-c2ccn(-c3c(F)cc(C(C)=O)cc3F)n2)ccc1C [Compound 68, methyl N-[[5-[1-(4-acetyl-2,6-difluorophenyl)-1H-pyrazol-3-yl]-2-methylphenyl]methyl]carbamate] | 74 | 71 | – | – |
| COC(=O)NCc1cc(-c2ccn(-c3c(F)cc(C(C)=NO)cc3F)n2)ccc1C [Compound 69] | – | – | 99 | 97 |
| COC(=O)NCc1cc(-c2ccn(-c3c(F)cc(C(=O)OC)cc3F)n2)ccc1C [Compound 70, methyl 3,5-difluoro-4-[3-[3-[[(methoxycarbonyl)amino]methyl]-4-methylphenyl]-1H-pyrazol-1-yl]benzoate] | 74 | 81 | – | – |
| COC(=O)NCc1cc(-c2ccn(-c3c(F)cc(CO)cc3F)n2)ccc1C [Compound 71, methyl N-[[5-[1-[2,6-difluoro-4-(hydroxymethyl)phenyl]-1H-pyrazol-3-yl]-2-methylphenyl]methyl]carbamate] | 0 | 25 | – | – |
| COC(=O)NCc1cc(-c2ccn(-c3c(F)cc(C=NO)cc3F)n2)ccc1C [Compound 72] | – | – | 100 | 77 |
| COC(=O)NCc1cc(-c2ccn(-c3c(F)cc(OCF)cc3F)n2)ccc1C [Compound 73] | 100 | 100 | – | – |
| COC(=O)NCc1cc(-c2ccn(-c3c(F)cc(CC(C)=O)cc3F)n2)ccc1C [Compound 75] | – | – | 0 | 87 |
| COC(=O)NCc1cc(-c2ccn(-c3c(F)cc(C(OC)C(C)=O)cc3F)n2)ccc1C (stereo not drawn) [Compound 76] | – | – | 68 | 100 |
| COC(=O)NCc1cc(-c2ccn(-c3c(F)cc(CF)cc3F)n2)ccc1C [Compound 77] | 100 | 100 | – | – |
| COC(=O)NCc1cc(-c2ccn(-c3c(F)cc(OC(F)(F)F)cc3F)n2)ccc1C [Compound 78, methyl N-[[5-[1-[2,6-difluoro-4-(trifluoromethoxy)phenyl]-1H-pyrazol-3-yl]-2-methylphenyl]methyl]carbamate] | 100 | 100 | – | – |
| CON=Cc1cc(F)c(-n2ccc(-c3ccc(C)c(CNC(=O)OC)c3)n2)c(F)c1 [Compound 79] | – | – | 100 | 100 |
| CCON=Cc1cc(F)c(-n2ccc(-c3ccc(C)c(CNC(=O)OC)c3)n2)c(F)c1 [Compound 80] | – | – | 100 | 100 |
| C=CCON=Cc1cc(F)c(-n2ccc(-c3ccc(C)c(CNC(=O)OC)c3)n2)c(F)c1 [Compound 81] | – | – | 92 | 100 |
| COC(=O)NCc1cc(-c2ccn(-c3c(F)cc(C=NOC(C)C)cc3F)n2)ccc1C [Compound 82] | – | – | 95 | 100 |
| CON=C(C)c1cc(F)c(-n2ccc(-c3ccc(C)c(CNC(=O)OC)c3)n2)c(F)c1 [Compound 83, methyl N-[[5-[1-[2,6-difluoro-4-[1-(methoxyimino)ethyl]phenyl]-1H-pyrazol-3-yl]-2-methylphenyl]methyl]carbamate] | 100 | 100 | – | – |
| CCON=C(C)c1cc(F)c(-n2ccc(-c3ccc(C)c(CNC(=O)OC)c3)n2)c(F)c1 [Compound 84] | – | – | 100 | 100 |
| C=CCON=C(C)c1cc(F)c(-n2ccc(-c3ccc(C)c(CNC(=O)OC)c3)n2)c(F)c1 [Compound 85] | – | – | 90 | 98 |

| Structure (SMILES) | pest or weed control at 10 ppm [1] [%] | pest or weed control at 10 ppm [2] [%] | Test B disease control rating [1] [%] | Test D disease control rating [2] [%] |
| --- | --- | --- | --- | --- |
| COC(=O)NCc1cc(-c2ccn(-c3c(F)cc(C(C)=NOC(C)C)cc3F)n2)ccc1C [Compound 86] | – | – | 99 | 100 |
| COC(=O)NCc1cc(-c2ccn(-c3c(F)cc(C(F)F)cc3F)n2)ccc1C [Compound 87, methyl N-[[5-[1-[4-(difluoromethyl)-2,6-difluorophenyl]-1H-pyrazol-3-yl]-2-methylphenyl]methyl]carbamate] | 100 | 100 | – | – |
| COC(=O)NCc1cc(-c2ccn(-c3c(F)cc(C4CC4(Cl)Cl)cc3F)n2)ccc1C (stereo not drawn) [Compound 88] | – | – | 100 | 100 |
| COC(=O)NCc1cc(-c2ccn(-c3c(F)cc(OC4CCCC4)cc3F)n2)ccc1C [Compound 90] | – | – | 86 | 100 |
| COC(=O)NCc1cc(-c2ccn(-c3c(F)cc(OC4CCCCC4)cc3F)n2)ccc1C [Compound 91] | – | – | 86 | 79 |
| CCC(C)Oc1cc(F)c(-n2ccc(-c3ccc(C)c(CNC(=O)OC)c3)n2)c(F)c1 (stereo not drawn) [Compound 92] | – | – | 100 | 100 |
| COC(=O)NCc1cc(-c2ccn(-c3c(F)cc(OC(C)(C)C)cc3F)n2)ccc1C [Compound 93] | – | – | 100 | 100 |
| C=CCOc1cc(F)c(-n2ccc(-c3ccc(C)c(CNC(=O)OC)c3)n2)c(F)c1 [Compound 94] | – | – | 85 | 99 |
| COC(=O)NCc1cc(-c2ccn(-c3c(F)cc(C(C)(C)O)cc3F)n2)ccc1C [Compound 95] | – | – | 0 | 53 |
| COC(=O)NCc1cc(-c2ccn(-c3c(F)cc(C(C)O)cc3F)n2)ccc1C (stereo not drawn) [Compound 96] | – | – | 68 | 79 |
| COC(=O)NCc1cc(-c2ccn(-c3c(F)cc(C(C)(C)F)cc3F)n2)ccc1C [Compound 97] | – | – | 100 | 100 |
| COC(=O)NCc1cc(-c2ccn(-c3c(F)cc(OC4CC(F)(F)C4)cc3F)n2)ccc1C [Compound 98] | – | – | 99 | 100 |
| CON=C(C)c1cc(F)c(-n2ccc(-c3ccc(C)c(CNC(=O)OC)c3)n2)c(F)c1 [Compound 99] | – | – | 100 | 100 |
| COC(=O)NCc1cc(-c2cnn(-c3c(F)cc(CC(C)C)cc3F)n2)ccc1C [Compound 109] | 91 | 100 | – | – |
| C=C(C)c1cc(F)c(-n2ncc(-c3ccc(C)c(CNC(=O)OC)c3)n2)c(F)c1 [Compound 110] | – | – | 95 | 100 |
| COC(=O)NCc1cc(-c2cnn(-c3c(F)cc(Cl)cc3F)n2)ccc1C [Compound 117, methyl N-[[5-[2-(4-chloro-2,6-difluorophenyl)-2H-1,2,3-triazol-4-yl]-2-methylphenyl]methyl]carbamate] | 100 | 100 | – | – |
| COC(=O)NCc1cc(-c2cn(-c3c(OC)cc(OC)cc3OC)nn2)ccc1C [Compound 127] | 0 | 0 | – | – |
| COC(=O)NCc1cc(-c2ccn(-c3c(F)cc(C4OCCO4)cc3F)n2)ccc1C [Compound 133] | 99 | 100 | – | – |
| COC(=O)NCc1cc(-c2ccn(-c3c(F)cc(C4OCCCO4)cc3F)n2)ccc1C [Compound 134] | 89 | 100 | – | – |
| COC(=O)NCc1cc(-c2ccn(-c3c(Cl)cc(C(C)C)cc3Cl)n2)ccc1C [Compound 135] | 86 | 100 | – | – |
| COC(=O)NCc1cc(-c2ccn(-c3c(Br)cc(I)cc3Br)n2)ccc1C [Compound 136] | 19 | 59 | – | – |
| C=C(C)c1cc(Br)c(-n2ccc(-c3ccc(C)c(CNC(=O)OC)c3)n2)c(Br)c1 [Compound 137] | – | – | 0 | 77 |
